Patent US6756362B2, “Methods and compositions based on inhibition of cell invasion and fibrosis by anionic polymers” (priority 1991, dated 2004)

Legend:
[1] = Sulfur content; type: physicochemical; conditions: by weight
[2] = tested on: PC12 cells; experiment: PC12 neurite outgrowth assay; type: cell-based; conditions: NGF-primed PC12 cells; scored 2 days later
Method: (§1) Cell lines. Murine 3T3 fibroblast (NIH), rat C6 glioma (Paganetti et al., 1988, J. Cell Biol. 107:2281) and MCG-28 young immortalized mouse astrocyte (a murine neonatal astrocyte line immortalized with SV-40) were grown in medium composed of Dulbecco's modified Eagle medium (DMEM), 10% fetal calf serum (Gibco Laboratories), and penicillin G/streptomycin (100 units/ml, 100 μg/ml respectively, Gibco Laboratories). For the stripe assay, confluent plates were disaggregated with 0.05% trypsin, 0.53 mM EDTA (Gibco Laboratories) and seeded at 200,000 cells/ml (3 ml/plate). For the cell adhesion assays, confluent cultures were disaggregated with 0.03% EDTA and plated in a 96-well microtiter plate at 20,000-100,000 cells per well. PC12 cells, a pheochromocytoma cell line (Green L. A. & Tischler A. S., 1976, Proc. Natl. Acad. Sci. U.S.A. 73:2424), were grown in medium containing Roswell Park Memorial Institute (RPMI) medium 1640 (Gibco Laboratories), 10% horse serum, 5% fetal calf serum (FCS), and penicillin G/streptomycin (100 units/ml, 100 μg/ml respectively, Gibco Laboratories). The cells were disaggregated with 0.03% EDTA and plated in a 96-well microtiter plate at 3,000 cells per well.
PC12 cells were primed with 20 ng/ml NGF for 8 days, collected with 0.03% EDTA in PBS and plated in precoated 96-well microtiter plates at 3,000 cells/well. The microtiter plates were precoated with poly-L-lysine and blocked with adhesion medium (1% BSA in RPMI) for 20 min prior to addition of cells. The cells were grown in adhesion medium supplemented with 20 ng/ml NGF. The cells were allowed to attach for 2 hr prior to the addition of the test compounds (Akeson and Warren, 1986, Exp. Cell Res. 162:347-362).
PC-12 cells primed with NGF were plated in 96-well plates. Test solutions were added to the wells and the cells were scored 2 days later as (+) if neurites of at least two cell bodies diameter in length were present on the majority of the cells, and (−) if no or only short processes were present. […] The compounds tested included GAGs (heparin, dermatan sulfate, chondroitin sulfate A, keratan sulfate and hyaluronic acid), sulfated carbohydrate polymers (dextran sulfate and pentosan polysulfate), and another polyanionic polymer (e.g., alginic acid).

[3] = tested on: epidural fibrosis at laminectomy site, Lewis inbred rats; experiment: Epidural fibrosis after lumbar laminectomy in rats, gross evaluation; type: in vivo, rat; design: TOTAL SCORE / TOTAL SCORE 2 WEEKS: scale not given here; conditions: for inhibition of scar formation (in words): 20 mg/ml, versus buffer control; for TOTAL SCORE: Table 5, agent 20 mg/ml
Method: Epidural fibrosis was investigated after lumbar laminectomy in rats. In this model, a laminectomy was performed at the lumbar 3 and 5 vertebrae and then the test agent was applied to the laminectomy site. Subsequently, the laminectomy sites were examined for fibrosis by gross dissection or by histological analysis.
Laminectomies (described below) were performed at lumbar vertebrae L3 and L5 to provide auto-controls within each animal. Segments of GELFOAM® (Upjohn) soaked with experimental or control solutions were inserted into the laminectomy site. The soared GELFOAM® fragments were prepared and coded 24 hours beforehand. The GELFOAM® segments were soaked in solutions of dextran sulfate in calcium/magnesium-free phosphate buffered saline (CMF-PBS), dextran in CMF-PBS, or CMF-PBS alone. In some laminectomy sites, the GELFOAM® fragments were omitted, in order to serve as sham operations. Subsequently, the evaluation by gross dissection was done without knowledge of which solutions had been placed in which laminectomy site. Thus, the experiments were double-blind.
Lewis inbred rats were anesthetized with 4% chloral hydrate (34 mg/100 g body weight). The dorsal skin was incised and the paraspinal muscles were separated from the spinous processes of lumbar vertebrae L2 through L6. The spinous processes of L3 and L5 were removed with a rongeurs; then the vertebral lamina was removed with a micro-rongeurs creating a rectangular laminectomy defect 4×2 mm in size. After bleeding was stopped, a GELFOAM® segment was placed into the laminectomy site according to a randomized protocol. The overlying paraspinal muscles were closed over the site by suturing the superficial fascia together with resorbable 6-0 PDS II (Ethicon). The skin incision was closed with wound clips.
The animals were kept for two weeks prior to gross evaluation. At that time, the rats were anesthetized with 4% chloral hydrate and the wound was reopened by incising, the skin and separating the paraspinal muscles. The quality and quantity of scar tissue above the laminectomy site, the appearance of the GELFOAM® and the extent of new bone growth was evaluated by visual and tactile observation during sharp dissection. After the gross evaluation was complete, the rats were euthanized by anesthesia overdose.
All gross evaluations were made prior to breaking the treatment code, but the observations have been tabulated and presented below according to treatment group.

[4] = tested on: rat meningeal fibroblasts (RMF); experiment: Colorimetric cell adhesion assay, RMF; type: cell-based; conditions: RMF on PLL; 4 hr incubation; FIG. 7
Method: Primary Cell Cultures. Primary cultures of rat meningeal fibroblasts (RMF) were obtained from P-3 rat pups. The tissue was removed from the animals and transferred to Leibovitz's L-15 with L-glutamine medium. The tissue was then cut into small pieces with a scalpel blade, enzymatically dissociated with 0.25% trypsin in Ca^2+/Mg^2+ free Hank's balanced salt solution (CMF-HBSS, Gibco Laboratories) for 20 minutes at 37° C., and mechanically triturated. The cells were rinsed with DMEM plus 10% FCS, concentrated by centrifugation and subsequently diluted in DMEM with 10% FCS for plating at 5.0×10^6 cells per 75 cm^2 flask. Adult rat sciatic nerve fibroblasts (RSF) were obtained by explantation of 1 mm sections of adult rat sciatic nerve.
(§2) Microtiter plates were precoated with poly-L-lysine and blocked with 1% BSA in DMEM for 20 min prior to addition of cells. The cells were plated on the precoated 96-well plates and test compounds were added to the culture medium. Following 4-24 hr incubation at 36° C., 5% C02, in a humidified incubator, the tetrazolium salt MTT (3-(4,5-dimethylthazol-2-yl)-2,5-diphenyl tetrazolium bromide) was added. The cultures were incubated for 2 hr to allow mitochondrial succinate dehydrogenase, found in viable cells, to […] the MTT to its formazan blue reaction product. The media was aspirated and the wells were rinsed to remove all detached cells. The formazan blue reaction product in attached cells was solubilized with 0.08 N HCl in isopropanol, and the plates were read in a microtiter plate reader (Dynatech MR4000) at 570 nm with a 630 nm reference filter. The resulting optical density readings are directly related to the number of viable cells in the well (Mosmann, T., 1983, J. Immunol. Methods 65:55-63). The samples were run in 3-6 replicates per point and the SD was less than 5%.
(§3) The adhesion of fibroblasts to PLL-coated microtiter plates in the presence of test compounds in the culture medium was evaluated using an MTT assay as described in Section 8.1.5., supra, and the number of attached cells was expressed as percent of control. The effect of 4 hr incubation in the presence of heparin, pentosan polysulfate, dextran sulfate, and dextran on adhesion of rat meningeal fibroplasts (RMF) and 3T3 cells to PLL is shown in FIG. 7.

[5] = tested on: 3T3 cells; experiment: Colorimetric cell adhesion assay, 3T3; type: cell-based, mouse; conditions: 3T3 cells on PLL; 4 hr incubation; FIG. 7
Method: as §1, §2, §3

Row | Substance | Sulfur Content [1] | IC100, minimum concentration causing 100% inhibition of neurite outgrowth [2] [g/mL] | inhibition of scar formation (in words) [3] | TOTAL SCORE [3] | number of attached cells compared to untreated controls [4] | number of attached cells compared to untreated controls [5]
1 | alginate | 0% | 3.1e-06 | marginal improvement | 7.3 ± 1.9 |  | 
2 | chondroitin sulfate A | 5.6% | 0.0005 |  |  |  | 
3 | dermatan sulfate [Dermatan sulfate 90%] | 6.0% | 1.5e-05 |  |  |  | 
4 | hyaluronic acid [reference compound] | 0.6-0.8% | 0.0002 | no ability to inhibit scar formation | 9.3 ± 0.5 |  | 
5 | keratan sulfate | 6.4% |  |  |  |  | 
6 | pentosan polysulfate [reference compound] | 16.5% | 3.9e-07 | partial inhibition | 5.0 ± 1.0 | decreased | decreased
